pKi: −log10 of the molar value.
Target: T1, endo β-1,4-D-glucanase
T1 construct: gene egl1; native secreted enzyme purified from solid state culture (ammonium sulfate, DEAE-Sepharose, Sephadex G-100); ~55 kDa on SDS-PAGE, monomer
Assay: inhibition of CMC hydrolysis, DNS reducing sugar assay, Lineweaver-Burk plot
Type: biochemical, Trichoderma harzianum
Conditions: competitive; substrate carboxymethyl cellulose; cellobiose 5 and 10 mM
From the text: inhibition of CMC hydrolysis, DNS reducing sugar assay, Lineweaver-Burk plot on endo β-1,4-D-glucanase | cellobiose to be competitive inhibitor of endo β-1,4-D-glucanase in the presence of CMC substrate

`OC[C@H]1O[C@@H](O[C@H]2[C@H](O)[C@@H](O)C(O)O[C@@H]2CO)[C@H](O)[C@@H](O)[C@@H]1O` (stereo partly shown) [cellobiose] was tested. Which pKi did it give?
The pKi was 1.18.

— PMC4829572, “Purification and characterization of endo β-1,4-D-glucanase from Trichoderma harzianum strain HZN11 and its application in production of bioethanol from sweet sorghum bagasse” (3 Biotech, 2016)
